Results: ChEMBL document CHEMBL5303573, “Mapping human microbiome drug metabolism by gut bacteria and their genes” (Nature, 2019)

Experiments:
[1] = bacteroides intestinalis, 12 h, 2 µM
Description: The drug is tested on Bacteroides intestinalis strain: DSM17393 for biotransformation. The drug concentrations were measured before and after a 12-h incubation by liquid-chromatography-coupled mass spectrometry (LC–MS)

[2] = roseburia intestinalis, 12 h, 2 µM
Description: The drug is tested on Roseburia intestinalis strain: L1-82 for biotransformation. The drug concentrations were measured before and after a 12-h incubation by liquid-chromatography-coupled mass spectrometry (LC–MS)

[3] = The drug is tested on Anaerotruncus colihominis strain: DSM17241 for biotransformation. The drug concentrations were measured before and after a 12-h incubation by liquid-chromatography-coupled mass spectrometry (LC–MS); conditions: 2 µM
[4] = The drug is tested on Ruminococcus lactaris strain: ATCC29176 for biotransformation. The drug concentrations were measured before and after a 12-h incubation by liquid-chromatography-coupled mass spectrometry (LC–MS); conditions: 2 µM
[5] = parabacteroides distasonis, 12 h, 2 µM
Description: The drug is tested on Parabacteroides distasonis strain: ATCC8503 for biotransformation. The drug concentrations were measured before and after a 12-h incubation by liquid-chromatography-coupled mass spectrometry (LC–MS)

[6] = bacteroides fragilis, 12 h, 2 µM
Description: The drug is tested on Bacteroides fragilis strain: 3397 (T10) for biotransformation. The drug concentrations were measured before and after a 12-h incubation by liquid-chromatography-coupled mass spectrometry (LC–MS)

[7] = The drug is tested on Bacteroides sp. WH2 strain: WH2 for biotransformation. The drug concentrations were measured before and after a 12-h incubation by liquid-chromatography-coupled mass spectrometry (LC–MS); conditions: bacteroides sp. wh2, 12 h, 2 µM
[8] = The drug is tested on Collinsella aerofaciens strain: ATCC25986 for biotransformation. The drug concentrations were measured before and after a 12-h incubation by liquid-chromatography-coupled mass spectrometry (LC–MS); conditions: 2 µM
[9] = The drug is tested on Bacteroides caccae strain: ATCC43185 for biotransformation. The drug concentrations were measured before and after a 12-h incubation by liquid-chromatography-coupled mass spectrometry (LC–MS); conditions: 2 µM
[10] = bacteroides thetaiotaomicron, 12 h, 2 µM
Description: The drug is tested on Bacteroides thetaiotaomicron strain: 7330 for biotransformation. The drug concentrations were measured before and after a 12-h incubation by liquid-chromatography-coupled mass spectrometry (LC–MS)

[11] = The drug is tested on Dorea formicigenerans strain: ATCC27755 for biotransformation. The drug concentrations were measured before and after a 12-h incubation by liquid-chromatography-coupled mass spectrometry (LC–MS); conditions: 2 µM
[12] = The drug is tested on Eubacterium ventriosum strain: ATCC27560 for biotransformation. The drug concentrations were measured before and after a 12-h incubation by liquid-chromatography-coupled mass spectrometry (LC–MS); type: ADME; design: dose 2 uM, timepoint 0 vs 12 hours; conditions: 2 µM
[13] = The drug is tested on Ruminococcus torques strain: ATCC27756 for biotransformation. The drug concentrations were measured before and after a 12-h incubation by liquid-chromatography-coupled mass spectrometry (LC–MS); type: ADME; design: dose 2 uM, timepoint 0 vs 12 hours; conditions: 2 µM
[14] = The drug is tested on Bifidobacterium breve strain: DSM20213 for biotransformation. The drug concentrations were measured before and after a 12-h incubation by liquid-chromatography-coupled mass spectrometry (LC–MS); conditions: 2 µM
[15] = The drug is tested on Escherichia coli strain: BW25113 for biotransformation. The drug concentrations were measured before and after a 12-h incubation by liquid-chromatography-coupled mass spectrometry (LC–MS); conditions: 2 µM
[16] = The drug is tested on Bacteroides finegoldii strain: DSM17565 for biotransformation. The drug concentrations were measured before and after a 12-h incubation by liquid-chromatography-coupled mass spectrometry (LC–MS); conditions: 2 µM
[17] = akkermansia muciniphila, 12 h, 2 µM
Description: The drug is tested on Akkermansia muciniphila strain: ATCC BAA-835 for biotransformation. The drug concentrations were measured before and after a 12-h incubation by liquid-chromatography-coupled mass spectrometry (LC–MS)

[18] = The drug is tested on Bacteroides coprophilus strain: DSM18228 for biotransformation. The drug concentrations were measured before and after a 12-h incubation by liquid-chromatography-coupled mass spectrometry (LC–MS); conditions: 2 µM
[19] = bifidobacterium adolescentis, 12 h, 2 µM
Description: The drug is tested on Bifidobacterium adolescentis strain: ATCC 15703 for biotransformation. The drug concentrations were measured before and after a 12-h incubation by liquid-chromatography-coupled mass spectrometry (LC–MS)

[20] = The drug is tested on Bacteroides dorei strain: DSM17855 for biotransformation. The drug concentrations were measured before and after a 12-h incubation by liquid-chromatography-coupled mass spectrometry (LC–MS); conditions: phocaeicola dorei, 2 µM

Row | Bacterial Biotransformation [10] | Bacterial Biotransformation [11] | SMILES | Bacterial Biotransformation [1] | Bacterial Biotransformation [2] | Bacterial Biotransformation [3] | Bacterial Biotransformation [4] | Bacterial Biotransformation [5] | Bacterial Biotransformation [6] | Bacterial Biotransformation [7] | Bacterial Biotransformation [8] | Bacterial Biotransformation [9] | Bacterial Biotransformation [12] | Bacterial Biotransformation [13] | Bacterial Biotransformation [14] | Bacterial Biotransformation [15] | Bacterial Biotransformation [16] | Bacterial Biotransformation [17] | Bacterial Biotransformation [18] | Bacterial Biotransformation [19] | Bacterial Biotransformation [20]
1 | Compound NOT metabolized | Compound NOT metabolized | CCN(CC)CCNC(=O)c1ccc(NC(C)=O)cc1 [ACECAINIDE] | Compound NOT metabolized | Compound NOT metabolized | Compound NOT metabolized | Compound NOT metabolized | Compound NOT metabolized | Compound NOT metabolized | Compound NOT metabolized | Compound NOT metabolized | Compound NOT metabolized | Compound NOT metabolized | Compound NOT metabolized | Compound NOT metabolized | Compound NOT metabolized | Compound NOT metabolized | Compound NOT metabolized | Compound NOT metabolized | Compound NOT metabolized | 
2 |  | Compound NOT metabolized | CC(C)NCC(O)COc1ccc(CC(N)=O)cc1 (centres undefined) [ATENOLOL] | Compound NOT metabolized | Compound NOT metabolized | Compound NOT metabolized |  | Compound NOT metabolized |  | Compound NOT metabolized | Compound NOT metabolized |  | Compound NOT metabolized | Compound NOT metabolized | Compound NOT metabolized | Compound NOT metabolized | Compound NOT metabolized | Compound NOT metabolized |  | Compound NOT metabolized | 
3 | Compound NOT metabolized | Compound NOT metabolized | CCc1oc2ccccc2c1C(=O)c1cc(Br)c(O)c(Br)c1 [BENZBROMARONE] | Compound NOT metabolized | Compound NOT metabolized | Compound NOT metabolized | Compound NOT metabolized | Compound NOT metabolized | Compound NOT metabolized | Compound NOT metabolized | Compound NOT metabolized | Compound NOT metabolized | Compound NOT metabolized |  | Compound metabolized | Compound NOT metabolized | Compound NOT metabolized | Compound NOT metabolized | Compound NOT metabolized | Compound NOT metabolized | 
4 |  |  | CN1C(=O)CCS(=O)(=O)C1c1ccc(Cl)cc1 (centres undefined) [CHLORMEZANONE] | Compound NOT metabolized |  | Compound NOT metabolized |  | Compound NOT metabolized | Compound NOT metabolized |  | Compound NOT metabolized | Compound NOT metabolized | Compound NOT metabolized | Compound NOT metabolized | Compound NOT metabolized | Compound NOT metabolized | Compound NOT metabolized | Compound NOT metabolized | Compound NOT metabolized | Compound NOT metabolized | 
5 |  |  | O=P1(N(CCCl)CCCl)NCCCO1 (centres undefined) [CYCLOPHOSPHAMIDE ANHYDROUS] | Compound NOT metabolized | Compound NOT metabolized |  |  | Compound NOT metabolized | Compound NOT metabolized | Compound NOT metabolized | Compound NOT metabolized |  |  | Compound NOT metabolized | Compound NOT metabolized | Compound NOT metabolized | Compound NOT metabolized | Compound NOT metabolized | Compound NOT metabolized | Compound NOT metabolized | 
6 |  |  | COc1cc(NC(C)CCCN)c2ncccc2c1.O=P(O)(O)O.O=P(O)(O)O (centres undefined) [PRIMAQUINE PHOSPHATE] |  | Compound NOT metabolized |  |  | Compound metabolized | Compound metabolized | Compound NOT metabolized | Compound metabolized | Compound NOT metabolized |  | Compound NOT metabolized | Compound metabolized | Compound metabolized | Compound metabolized | Compound NOT metabolized | Compound NOT metabolized | Compound NOT metabolized | 

Row | SMILES | Bacterial Biotransformation [10] | Bacterial Biotransformation [11] | Bacterial Biotransformation [1] | Bacterial Biotransformation [2] | Bacterial Biotransformation [3] | Bacterial Biotransformation [4] | Bacterial Biotransformation [5] | Bacterial Biotransformation [6] | Bacterial Biotransformation [7] | Bacterial Biotransformation [8] | Bacterial Biotransformation [9] | Bacterial Biotransformation [12] | Bacterial Biotransformation [13] | Bacterial Biotransformation [14] | Bacterial Biotransformation [15] | Bacterial Biotransformation [16] | Bacterial Biotransformation [17] | Bacterial Biotransformation [18] | Bacterial Biotransformation [19] | Bacterial Biotransformation [20]
7 | CN/C(=N/CCSCc1nc[nH]c1C)NC#N [CIMETIDINE] |  | Compound NOT metabolized | Compound NOT metabolized | Compound NOT metabolized | Compound NOT metabolized | Compound NOT metabolized | Compound NOT metabolized | Compound metabolized | Compound NOT metabolized | Compound NOT metabolized |  | Compound NOT metabolized | Compound NOT metabolized | Compound NOT metabolized | Compound NOT metabolized |  | Compound NOT metabolized |  | Compound NOT metabolized | Compound metabolized
8 | CC(C)(C)NCC(O)c1cc(Cl)c(N)c(Cl)c1 (centres undefined) [CLENBUTEROL] |  | Compound NOT metabolized | Compound NOT metabolized | Compound NOT metabolized | Compound NOT metabolized | Compound NOT metabolized | Compound NOT metabolized | Compound NOT metabolized | Compound NOT metabolized | Compound NOT metabolized | Compound NOT metabolized | Compound NOT metabolized | Compound NOT metabolized | Compound NOT metabolized | Compound NOT metabolized | Compound NOT metabolized | Compound NOT metabolized | Compound NOT metabolized | Compound NOT metabolized | Compound NOT metabolized
9 | Cc1nc2n(c(=O)c1CCN1CCC(c3noc4cc(F)ccc34)CC1)CCCC2 [RISPERIDONE] | Compound NOT metabolized |  | Compound NOT metabolized | Compound metabolized | Compound metabolized | Compound metabolized | Compound NOT metabolized | Compound NOT metabolized | Compound NOT metabolized | Compound NOT metabolized | Compound metabolized | Compound NOT metabolized | Compound NOT metabolized | Compound metabolized | Compound NOT metabolized | Compound NOT metabolized | Compound NOT metabolized | Compound NOT metabolized | Compound NOT metabolized | 
